Experiments:
Test in all cases: KinaseProfiler Assay
Rsk1(r) = Rsk1(r) (Rattus norvegicus, UniProt Q63531)
Abl(m) = Abl(m) (Mus musculus, UniProt P00520)
Fgr(h) = Fgr(h) (Homo sapiens, UniProt P09769)
FGFR2(h) = FGFR2(h) (Homo sapiens, UniProt P21802)
PhKγ2(h) = target: T1, PhKγ2(h) (Homo sapiens, UniProt P15735)
T1 sequence (P15735 1-406): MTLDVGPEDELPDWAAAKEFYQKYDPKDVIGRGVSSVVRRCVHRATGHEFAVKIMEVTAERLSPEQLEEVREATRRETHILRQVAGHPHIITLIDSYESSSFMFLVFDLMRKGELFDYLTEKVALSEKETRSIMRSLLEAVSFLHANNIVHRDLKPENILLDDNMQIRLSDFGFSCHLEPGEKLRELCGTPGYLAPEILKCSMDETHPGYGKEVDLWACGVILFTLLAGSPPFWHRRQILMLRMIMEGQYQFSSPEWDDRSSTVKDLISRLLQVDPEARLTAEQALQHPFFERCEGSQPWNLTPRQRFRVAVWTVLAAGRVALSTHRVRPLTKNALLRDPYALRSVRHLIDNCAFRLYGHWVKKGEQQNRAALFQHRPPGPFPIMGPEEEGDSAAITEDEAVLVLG

PI 3-Kinaseδ(h) = PI 3-Kinaseδ(h) (Homo sapiens, UniProt O00329)
CDK6/cydinD3(h) = CDK6/cydinD3(h) (Homo sapiens, UniProt Q00534)
Lyn(h) = Lyn(h) (Homo sapiens, UniProt P07948)
Chain of Lyn(h) (P07948 whole entry): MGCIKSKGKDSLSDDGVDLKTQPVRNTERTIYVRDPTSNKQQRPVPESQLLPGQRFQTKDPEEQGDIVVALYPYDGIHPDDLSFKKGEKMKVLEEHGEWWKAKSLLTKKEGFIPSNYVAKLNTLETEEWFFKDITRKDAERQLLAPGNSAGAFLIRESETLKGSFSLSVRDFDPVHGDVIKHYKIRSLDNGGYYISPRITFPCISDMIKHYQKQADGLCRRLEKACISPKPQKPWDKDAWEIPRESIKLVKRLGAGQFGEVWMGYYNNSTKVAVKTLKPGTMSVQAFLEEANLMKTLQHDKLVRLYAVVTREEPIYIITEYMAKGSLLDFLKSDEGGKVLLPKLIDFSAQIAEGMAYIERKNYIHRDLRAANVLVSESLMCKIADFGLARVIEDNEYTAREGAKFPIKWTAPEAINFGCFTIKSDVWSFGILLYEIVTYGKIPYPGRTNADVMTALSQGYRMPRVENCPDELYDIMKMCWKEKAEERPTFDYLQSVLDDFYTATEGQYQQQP

NEK3(h) = target: T2, NEK3(h) (Homo sapiens, UniProt P51956)
T2 sequence (P51956 1-506): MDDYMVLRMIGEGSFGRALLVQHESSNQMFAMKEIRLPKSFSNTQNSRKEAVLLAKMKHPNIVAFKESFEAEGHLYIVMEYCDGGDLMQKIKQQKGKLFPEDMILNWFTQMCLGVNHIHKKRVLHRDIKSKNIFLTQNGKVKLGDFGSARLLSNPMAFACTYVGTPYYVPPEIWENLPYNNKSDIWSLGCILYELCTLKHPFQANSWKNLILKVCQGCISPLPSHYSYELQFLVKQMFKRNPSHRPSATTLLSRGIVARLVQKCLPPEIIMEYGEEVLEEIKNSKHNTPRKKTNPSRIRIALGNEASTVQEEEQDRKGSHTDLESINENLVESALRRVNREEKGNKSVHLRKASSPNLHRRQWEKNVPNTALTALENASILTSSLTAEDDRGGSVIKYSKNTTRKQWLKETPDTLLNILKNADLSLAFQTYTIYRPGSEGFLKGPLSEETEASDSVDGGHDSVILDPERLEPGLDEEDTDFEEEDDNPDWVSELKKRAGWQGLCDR

IR(h) = IR(h) (Homo sapiens, UniProt P06213)
Chain of IR(h) (P06213 28-1382): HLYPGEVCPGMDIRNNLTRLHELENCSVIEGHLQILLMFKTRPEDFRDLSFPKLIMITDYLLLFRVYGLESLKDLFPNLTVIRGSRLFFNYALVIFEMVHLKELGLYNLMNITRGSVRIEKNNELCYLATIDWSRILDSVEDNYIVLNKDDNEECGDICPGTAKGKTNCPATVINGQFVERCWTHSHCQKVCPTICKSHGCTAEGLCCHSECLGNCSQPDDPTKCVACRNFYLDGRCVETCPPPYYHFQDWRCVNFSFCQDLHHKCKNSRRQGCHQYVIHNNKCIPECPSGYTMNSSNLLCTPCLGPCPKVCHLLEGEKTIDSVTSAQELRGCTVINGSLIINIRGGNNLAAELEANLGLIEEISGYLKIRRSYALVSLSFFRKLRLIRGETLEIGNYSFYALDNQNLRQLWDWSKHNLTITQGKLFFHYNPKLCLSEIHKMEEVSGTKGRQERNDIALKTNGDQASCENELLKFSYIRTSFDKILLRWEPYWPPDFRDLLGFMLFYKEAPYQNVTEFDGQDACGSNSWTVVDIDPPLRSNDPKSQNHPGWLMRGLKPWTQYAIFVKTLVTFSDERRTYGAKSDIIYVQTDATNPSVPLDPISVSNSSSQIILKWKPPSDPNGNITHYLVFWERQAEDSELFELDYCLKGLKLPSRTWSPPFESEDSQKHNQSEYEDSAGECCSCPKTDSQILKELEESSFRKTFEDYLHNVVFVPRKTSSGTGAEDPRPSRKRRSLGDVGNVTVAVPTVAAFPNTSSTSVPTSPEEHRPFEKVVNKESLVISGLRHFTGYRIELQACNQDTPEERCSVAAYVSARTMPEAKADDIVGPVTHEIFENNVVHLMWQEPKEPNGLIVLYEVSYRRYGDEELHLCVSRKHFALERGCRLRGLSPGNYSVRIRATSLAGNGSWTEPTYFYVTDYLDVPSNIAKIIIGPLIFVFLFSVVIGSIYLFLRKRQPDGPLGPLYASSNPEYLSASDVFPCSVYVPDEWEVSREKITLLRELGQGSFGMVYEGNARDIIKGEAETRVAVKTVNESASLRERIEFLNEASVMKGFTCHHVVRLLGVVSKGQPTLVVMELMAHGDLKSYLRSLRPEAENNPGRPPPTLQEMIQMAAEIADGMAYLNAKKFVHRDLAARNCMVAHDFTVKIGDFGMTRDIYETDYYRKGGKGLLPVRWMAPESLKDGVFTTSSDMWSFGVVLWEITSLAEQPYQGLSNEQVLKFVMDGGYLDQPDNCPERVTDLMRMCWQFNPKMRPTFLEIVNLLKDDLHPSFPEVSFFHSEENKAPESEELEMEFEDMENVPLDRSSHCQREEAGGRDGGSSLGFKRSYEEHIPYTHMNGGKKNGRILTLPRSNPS

SAPK4(h) = target: T3, SAPK4(h) (Homo sapiens, UniProt O15264)
T3 sequence (O15264 1-365): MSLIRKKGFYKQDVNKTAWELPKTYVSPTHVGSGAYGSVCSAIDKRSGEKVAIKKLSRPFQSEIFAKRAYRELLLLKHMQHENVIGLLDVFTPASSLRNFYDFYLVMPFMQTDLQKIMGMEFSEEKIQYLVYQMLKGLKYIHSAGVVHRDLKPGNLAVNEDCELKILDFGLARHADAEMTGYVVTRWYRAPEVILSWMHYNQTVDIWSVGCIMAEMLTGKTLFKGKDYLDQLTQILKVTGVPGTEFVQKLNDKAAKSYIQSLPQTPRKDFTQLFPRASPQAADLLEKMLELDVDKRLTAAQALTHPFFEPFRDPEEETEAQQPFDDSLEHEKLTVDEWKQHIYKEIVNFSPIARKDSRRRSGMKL

CDK3/cyclinE(h) = CDK3/cyclinE(h) (Homo sapiens, UniProt Q00526)
Chain of CDK3/cyclinE(h) (Q00526 whole entry): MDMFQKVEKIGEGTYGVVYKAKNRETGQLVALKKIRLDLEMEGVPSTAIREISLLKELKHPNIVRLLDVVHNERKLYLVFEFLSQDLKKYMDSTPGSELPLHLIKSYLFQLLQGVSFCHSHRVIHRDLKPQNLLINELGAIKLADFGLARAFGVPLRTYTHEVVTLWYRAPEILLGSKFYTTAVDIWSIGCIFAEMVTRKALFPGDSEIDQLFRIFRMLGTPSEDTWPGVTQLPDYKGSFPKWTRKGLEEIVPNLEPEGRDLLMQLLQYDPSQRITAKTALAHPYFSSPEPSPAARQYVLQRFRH
Chain of CDK3/cyclinE(h) (P24864 whole entry partner): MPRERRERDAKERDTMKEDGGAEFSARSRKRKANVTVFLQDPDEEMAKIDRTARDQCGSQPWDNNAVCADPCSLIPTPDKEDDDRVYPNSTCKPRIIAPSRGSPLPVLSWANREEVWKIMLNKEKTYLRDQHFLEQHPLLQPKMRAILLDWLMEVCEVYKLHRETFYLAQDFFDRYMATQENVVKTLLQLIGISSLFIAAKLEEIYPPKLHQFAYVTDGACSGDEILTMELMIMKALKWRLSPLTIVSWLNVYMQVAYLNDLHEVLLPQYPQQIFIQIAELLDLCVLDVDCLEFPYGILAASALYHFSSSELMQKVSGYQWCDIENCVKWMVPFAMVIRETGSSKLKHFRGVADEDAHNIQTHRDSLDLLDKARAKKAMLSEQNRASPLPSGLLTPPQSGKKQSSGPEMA

Chain of Fgr(h) (P09769 whole entry): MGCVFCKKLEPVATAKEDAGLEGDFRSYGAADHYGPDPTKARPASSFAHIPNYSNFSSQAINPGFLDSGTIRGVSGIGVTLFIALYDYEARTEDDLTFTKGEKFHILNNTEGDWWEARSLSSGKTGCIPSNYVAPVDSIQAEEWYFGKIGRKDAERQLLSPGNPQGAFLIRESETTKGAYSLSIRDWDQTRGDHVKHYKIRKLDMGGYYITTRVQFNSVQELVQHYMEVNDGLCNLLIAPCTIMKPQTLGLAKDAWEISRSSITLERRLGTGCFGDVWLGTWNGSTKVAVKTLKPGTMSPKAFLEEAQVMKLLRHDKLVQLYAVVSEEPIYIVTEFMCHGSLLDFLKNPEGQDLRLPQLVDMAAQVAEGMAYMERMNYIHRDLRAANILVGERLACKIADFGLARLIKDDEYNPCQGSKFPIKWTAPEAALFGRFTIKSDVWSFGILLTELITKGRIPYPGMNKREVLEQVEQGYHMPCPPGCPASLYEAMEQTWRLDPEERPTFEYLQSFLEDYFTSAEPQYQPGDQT
Chain of Rsk1(r) (Q63531 whole entry): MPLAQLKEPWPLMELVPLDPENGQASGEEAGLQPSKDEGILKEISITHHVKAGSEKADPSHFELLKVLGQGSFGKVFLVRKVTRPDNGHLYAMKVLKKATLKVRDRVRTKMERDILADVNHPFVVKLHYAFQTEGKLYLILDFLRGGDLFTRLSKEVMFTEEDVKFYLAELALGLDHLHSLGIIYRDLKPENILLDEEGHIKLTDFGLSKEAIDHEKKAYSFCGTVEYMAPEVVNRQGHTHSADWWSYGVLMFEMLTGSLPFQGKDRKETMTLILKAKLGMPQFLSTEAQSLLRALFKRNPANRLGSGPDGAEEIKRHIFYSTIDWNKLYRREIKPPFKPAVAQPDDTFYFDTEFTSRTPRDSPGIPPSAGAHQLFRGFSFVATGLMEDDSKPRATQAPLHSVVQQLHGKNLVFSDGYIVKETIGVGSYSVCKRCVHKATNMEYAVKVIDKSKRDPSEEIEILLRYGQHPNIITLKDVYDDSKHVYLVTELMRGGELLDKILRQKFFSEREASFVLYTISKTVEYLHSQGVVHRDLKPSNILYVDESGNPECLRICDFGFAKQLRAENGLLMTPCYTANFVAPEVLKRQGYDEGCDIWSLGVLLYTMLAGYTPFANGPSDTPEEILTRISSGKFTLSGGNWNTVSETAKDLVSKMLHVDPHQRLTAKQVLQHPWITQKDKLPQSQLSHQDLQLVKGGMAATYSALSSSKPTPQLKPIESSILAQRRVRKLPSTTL
Chain of Abl(m) (P00520 whole entry): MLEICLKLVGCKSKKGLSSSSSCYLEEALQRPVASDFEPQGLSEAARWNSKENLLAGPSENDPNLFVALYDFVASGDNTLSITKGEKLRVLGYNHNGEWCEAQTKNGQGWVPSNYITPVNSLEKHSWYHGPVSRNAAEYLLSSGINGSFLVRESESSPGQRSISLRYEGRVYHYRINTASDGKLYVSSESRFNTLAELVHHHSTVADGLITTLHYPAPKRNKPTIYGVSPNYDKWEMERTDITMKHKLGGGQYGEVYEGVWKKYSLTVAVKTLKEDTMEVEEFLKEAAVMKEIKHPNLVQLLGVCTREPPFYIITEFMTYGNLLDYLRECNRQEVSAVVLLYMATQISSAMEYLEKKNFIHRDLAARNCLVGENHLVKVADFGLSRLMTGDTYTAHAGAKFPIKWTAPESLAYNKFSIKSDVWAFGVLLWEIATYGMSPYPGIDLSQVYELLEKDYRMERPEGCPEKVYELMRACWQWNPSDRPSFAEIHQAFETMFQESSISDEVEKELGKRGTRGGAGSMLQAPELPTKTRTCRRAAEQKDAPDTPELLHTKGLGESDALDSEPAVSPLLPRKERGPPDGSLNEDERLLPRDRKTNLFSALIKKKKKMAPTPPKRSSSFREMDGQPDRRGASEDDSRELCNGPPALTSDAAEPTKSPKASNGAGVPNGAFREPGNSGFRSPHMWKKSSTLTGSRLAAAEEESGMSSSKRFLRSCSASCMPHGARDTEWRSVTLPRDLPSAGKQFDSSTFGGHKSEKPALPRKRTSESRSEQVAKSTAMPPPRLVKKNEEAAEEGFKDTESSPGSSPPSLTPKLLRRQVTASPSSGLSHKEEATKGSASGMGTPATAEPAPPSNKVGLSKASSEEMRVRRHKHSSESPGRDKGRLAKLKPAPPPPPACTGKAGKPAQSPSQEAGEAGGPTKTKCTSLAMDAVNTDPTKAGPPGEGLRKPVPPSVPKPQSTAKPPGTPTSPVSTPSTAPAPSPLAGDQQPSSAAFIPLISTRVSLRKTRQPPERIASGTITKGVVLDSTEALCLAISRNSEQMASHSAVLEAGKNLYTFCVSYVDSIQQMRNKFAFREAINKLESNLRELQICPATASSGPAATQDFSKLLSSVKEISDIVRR

SMILES: CC(C)CCC(=O)[C@]1(O)C(O)=C(C(=O)C(C)C)C(=O)[C@H]1CCC(C)C [TH2, tetrahydroiso-cohumulone]
- kinase inhibition (Rsk1(r); 1 μg/ml): 101% of control
- kinase inhibition (Rsk1(r); 5 μg/ml): 102% of control
- kinase inhibition (Rsk1(r); 25 μg/ml): 93% of control
- kinase inhibition (Rsk1(r); 50 μg/ml): 63% of control
- kinase inhibition (Rsk1(r); 100 μg/ml): 36% of control
- kinase inhibition (Abl(m); 1 μg/ml): 98% of control
- kinase inhibition (Abl(m); 5 μg/ml): 91% of control
- kinase inhibition (Abl(m); 25 μg/ml): 69% of control
- kinase inhibition (Abl(m); 50 μg/ml): 32% of control
- kinase inhibition (Abl(m); 100 μg/ml): 48% of control
- kinase inhibition (Fgr(h); 1 μg/ml): 95% of control
- kinase inhibition (Fgr(h); 5 μg/ml): 96% of control
- kinase inhibition (Fgr(h); 25 μg/ml): 112% of control
- kinase inhibition (Fgr(h); 50 μg/ml): 106% of control
- kinase inhibition (Fgr(h); 100 μg/ml): 86% of control
- kinase inhibition (FGFR2(h); 1 μg/ml): 111% of control
- kinase inhibition (FGFR2(h); 5 μg/ml): 98% of control
- kinase inhibition (FGFR2(h); 25 μg/ml): 102% of control
- kinase inhibition (FGFR2(h); 50 μg/ml): 96% of control
- kinase inhibition (FGFR2(h); 100 μg/ml): 78% of control
- kinase inhibition (PhKγ2(h); 1 μg/ml): 112% of control
- kinase inhibition (PhKγ2(h); 5 μg/ml): 116% of control
- kinase inhibition (PhKγ2(h); 25 μg/ml): 114% of control
- kinase inhibition (PhKγ2(h); 50 μg/ml): 88% of control
- kinase inhibition (PhKγ2(h); 100 μg/ml): 63% of control
- kinase inhibition (PI 3-Kinaseδ(h); 1 μg/ml): 97% of control
- kinase inhibition (PI 3-Kinaseδ(h); 5 μg/ml): 89% of control
- kinase inhibition (PI 3-Kinaseδ(h); 25 μg/ml): 62% of control
- kinase inhibition (PI 3-Kinaseδ(h); 50 μg/ml): 18% of control
- kinase inhibition (PI 3-Kinaseδ(h); 100 μg/ml): 52% of control
- kinase inhibition (CDK6/cydinD3(h); 1 μg/ml): 120% of control
- kinase inhibition (CDK6/cydinD3(h); 5 μg/ml): 109% of control
- kinase inhibition (CDK6/cydinD3(h); 25 μg/ml): 117% of control
- kinase inhibition (CDK6/cydinD3(h); 50 μg/ml): 105% of control
- kinase inhibition (CDK6/cydinD3(h); 100 μg/ml): 92% of control
- kinase inhibition (Lyn(h); 1 μg/ml): 145% of control
- kinase inhibition (Lyn(h); 5 μg/ml): 146% of control
- kinase inhibition (Lyn(h); 25 μg/ml): 139% of control
- kinase inhibition (Lyn(h); 50 μg/ml): 91% of control
- kinase inhibition (Lyn(h); 100 μg/ml): 68% of control
- kinase inhibition (NEK3(h); 1 μg/ml): 99% of control
- kinase inhibition (NEK3(h); 5 μg/ml): 102% of control
- kinase inhibition (NEK3(h); 25 μg/ml): 97% of control
- kinase inhibition (NEK3(h); 50 μg/ml): 94% of control
- kinase inhibition (NEK3(h); 100 μg/ml): 92% of control
- kinase inhibition (IR(h); 1 μg/ml): 96% of control
- kinase inhibition (IR(h); 5 μg/ml): 100% of control
- kinase inhibition (IR(h); 25 μg/ml): 80% of control
- kinase inhibition (IR(h); 50 μg/ml): 75% of control
- kinase inhibition (IR(h); 100 μg/ml): 79% of control
- kinase inhibition (SAPK4(h); 1 μg/ml): 114% of control
- kinase inhibition (SAPK4(h); 5 μg/ml): 118% of control
- kinase inhibition (SAPK4(h); 25 μg/ml): 116% of control
- kinase inhibition (SAPK4(h); 50 μg/ml): 121% of control
- kinase inhibition (SAPK4(h); 100 μg/ml): 109% of control
- kinase inhibition (CDK3/cyclinE(h); 1 μg/ml): 102% of control
- kinase inhibition (CDK3/cyclinE(h); 5 μg/ml): 104% of control
- kinase inhibition (CDK3/cyclinE(h); 25 μg/ml): 120% of control
- kinase inhibition (CDK3/cyclinE(h); 50 μg/ml): 103% of control
- kinase inhibition (CDK3/cyclinE(h); 100 μg/ml): 84% of control

From US20100137449A1, “SUBSTITUTED 1,3-CYCLOPENTADIONE MULTI-TARGET PROTEIN KINASE MODULATORS OF CANCER, ANGIOGENESIS AND THE INFLAMMATORY PATHWAYS ASSOCIATED THEREWITH” (METAPROTEOMICS, LLC, priority 2007, published 2010)
